Results published in ChEMBL document CHEMBL1201862, “PubChem BioAssay data set” (2004).
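Results reflect a 48-hour exposure of cells in 96-well plates to compound at five concentrations. GI50 marks 50% less growth.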 The source made the active and inactive calls. No stated cut-off is given here; in the data, active = GI50 up to about 1.1 µM and inactive = higher.

Key:
Test in all cases: NCI anticancer screen, dose series, 48 h
A549 = test system: A549
DU-145 = test system: DU-145
EKVX = test system: EKVX
HL-60 = test system: HL-60
Hs-578T = test system: Hs-578T
KM12 = test system: KM12
LOX IMVI = test system: LOX IMVI
MCF7 = test system: MCF7
MDA-MB-231 = test system: MDA-MB-231
MOLT-4 = test system: MOLT-4
RPMI-8226 = test system: RPMI-8226
SF-268 = test system: SF-268
SF-539 = test system: SF-539
SK-MEL-2 = test system: SK-MEL-2
SN12C = test system: SN12C
SR = test system: SR
SW-620 = test system: SW-620
T47D = test system: T47D
UACC-62 = test system: UACC-62
UO-31 = test system: UO-31

Structure (SMILES)	GI50 (A549)	GI50 (DU-145)	GI50 (EKVX)	GI50 (HL-60)	GI50 (Hs-578T)	GI50 (KM12)	GI50 (LOX IMVI)	GI50 (MCF7)	GI50 (MDA-MB-231)	GI50 (MOLT-4)	GI50 (RPMI-8226)	GI50 (SF-268)	GI50 (SF-539)	GI50 (SK-MEL-2)	GI50 (SN12C)	GI50 (SR)	GI50 (SW-620)	GI50 (T47D)	GI50 (UACC-62)	GI50 (UO-31)
COC1=CC(=O)c2c(O)c3c(c(O)c2C1=O)C[C@](C)(O)C[C@@H]3O	2.93 µM (inactive)	4.11 µM (inactive)	8.04 µM (inactive)	1.62 µM (inactive)	18.2 µM (inactive)	4.13 µM (inactive)	2.54 µM (inactive)	4.89 µM (inactive)	7.74 µM (inactive)	7.8 µM (inactive)	8.11 µM (inactive)	5.25 µM (inactive)	3.08 µM (inactive)	3.35 µM (inactive)	3.63 µM (inactive)	2.92 µM (inactive)	3.92 µM (inactive)	6.98 µM (inactive)	1.46 µM (inactive)	11.4 µM (inactive)
C=CN1CCN(c2ccccc2)P1(=O)Oc1ccccc1 (centres undefined)	> 100 µM (inactive)	> 100 µM (inactive)	45 µM (inactive)	> 100 µM (inactive)	33.7 µM (inactive)	> 100 µM (inactive)	> 100 µM (inactive)	> 100 µM (inactive)	55.6 µM (inactive)	> 100 µM (inactive)	> 100 µM (inactive)	> 100 µM (inactive)	> 100 µM (inactive)	54.6 µM (inactive)	> 100 µM (inactive)	> 100 µM (inactive)	> 100 µM (inactive)	63.7 µM (inactive)	53.1 µM (inactive)	20 µM (inactive)
NCCCN1c2ccccc2Sc2ccc(Cl)cc21	4.59 µM (inactive)	> 10 µM (inactive)	> 7.36 µM (inactive)	9.98 µM (inactive)	5.01 µM (inactive)	2.51 µM (inactive)	3.29 µM (inactive)	1.76 µM (inactive)	3.33 µM (inactive)	2.88 µM (inactive)	3.95 µM (inactive)	8.17 µM (inactive)	5.22 µM (inactive)	> 6.21 µM (inactive)	6 µM (inactive)	2.18 µM (inactive)	2.9 µM (inactive)	> 5.36 µM (inactive)	> 7.31 µM (inactive)	7.8 µM (inactive)
CC1(C)OC(=O)C(C)(C)OC1=O	> 100 µM (inactive)	> 100 µM (inactive)	> 100 µM (inactive)	> 100 µM (inactive)	> 100 µM (inactive)	> 100 µM (inactive)	> 100 µM (inactive)	> 100 µM (inactive)	> 100 µM (inactive)	> 100 µM (inactive)	> 100 µM (inactive)	> 100 µM (inactive)	> 100 µM (inactive)	> 100 µM (inactive)	> 100 µM (inactive)	> 100 µM (inactive)	> 100 µM (inactive)	> 100 µM (inactive)	> 100 µM (inactive)	> 100 µM (inactive)
Cc1cnc2[nH]c(-c3ccccc3)cc(=O)c2c1	0.0585 µM (active)	0.0395 µM (active)	0.716 µM (active)	< 0.01 µM (active)	0.0171 µM (active)	0.0138 µM (active)	0.0351 µM (active)	0.164 µM (active)	0.217 µM (active)	0.0252 µM (active)	0.0219 µM (active)	0.0697 µM (active)	0.0246 µM (active)	0.0391 µM (active)	0.0527 µM (active)	< 0.01 µM (active)	< 0.01 µM (active)	> 100 µM (inactive)	< 0.0132 µM (active)	0.0528 µM (active)
Cc1cnc2sn(-c3ccc(Oc4ccccc4)cc3)c(=O)c2c1	16.8 µM (inactive)	14.1 µM (inactive)	13.4 µM (inactive)	4.36 µM (inactive)	21.1 µM (inactive)	13.4 µM (inactive)	6.1 µM (inactive)	22.4 µM (inactive)	20.5 µM (inactive)	8.67 µM (inactive)	9.62 µM (inactive)	11.8 µM (inactive)	14 µM (inactive)	28.3 µM (inactive)	17.9 µM (inactive)	7.06 µM (inactive)	21.2 µM (inactive)	14 µM (inactive)	10.3 µM (inactive)	19.5 µM (inactive)
O=C1CCC(C(=O)O)C2=C1CCCC2 (centres undefined)	> 34 µM (inactive)	> 100 µM (inactive)	> 100 µM (inactive)	> 100 µM (inactive)	> 100 µM (inactive)	> 35.6 µM (inactive)	> 100 µM (inactive)	51.6 µM (inactive)	> 100 µM (inactive)	> 100 µM (inactive)	> 100 µM (inactive)	> 100 µM (inactive)	–	> 100 µM (inactive)	> 100 µM (inactive)	> 100 µM (inactive)	> 100 µM (inactive)	> 100 µM (inactive)	> 100 µM (inactive)	–
CC(C)(C)N1C=[N+](C(C)(C)C)CC1	> 100 µM (inactive)	> 100 µM (inactive)	> 100 µM (inactive)	> 100 µM (inactive)	> 100 µM (inactive)	> 100 µM (inactive)	> 100 µM (inactive)	> 100 µM (inactive)	> 100 µM (inactive)	> 100 µM (inactive)	> 100 µM (inactive)	> 100 µM (inactive)	> 100 µM (inactive)	> 100 µM (inactive)	> 100 µM (inactive)	> 100 µM (inactive)	> 100 µM (inactive)	> 100 µM (inactive)	–	> 100 µM (inactive)
C#CC(O)/C=C/C(O)CCCC(O)CC#CC(O)C#CCCCCC(O)/C=C/CCCC(O)/C=C/CCCCCCCCCCCCCC(O)C(O)C#CC(=O)O (centres undefined)	> 25 µM (inactive)	> 25 µM (inactive)	> 25 µM (inactive)	> 25 µM (inactive)	> 25 µM (inactive)	> 25 µM (inactive)	13.9 µM (inactive)	> 25 µM (inactive)	> 25 µM (inactive)	> 25 µM (inactive)	> 25 µM (inactive)	> 25 µM (inactive)	–	> 25 µM (inactive)	> 25 µM (inactive)	> 25 µM (inactive)	–	> 25 µM (inactive)	> 25 µM (inactive)	> 25 µM (inactive)
CC(N)/C(N)=N/O (centres undefined)	> 100 µM (inactive)	> 100 µM (inactive)	> 100 µM (inactive)	> 100 µM (inactive)	> 100 µM (inactive)	> 100 µM (inactive)	> 100 µM (inactive)	> 100 µM (inactive)	> 100 µM (inactive)	–	> 100 µM (inactive)	> 100 µM (inactive)	> 100 µM (inactive)	> 100 µM (inactive)	> 100 µM (inactive)	> 100 µM (inactive)	> 100 µM (inactive)	> 100 µM (inactive)	> 100 µM (inactive)	> 100 µM (inactive)
C=CCOC(=O)N1[C@H]2C#C/C=C\C#C[C@]3(O)C(=O)C[C@H](C)[C@]24O[C@]43C2=CC(=O)C=CC21OC (some centres undefined)	23.2 µM (inactive)	38.7 µM (inactive)	44 µM (inactive)	30.8 µM (inactive)	49 µM (inactive)	32.9 µM (inactive)	–	16.9 µM (inactive)	28.3 µM (inactive)	3.72 µM (inactive)	21.2 µM (inactive)	50.6 µM (inactive)	20.6 µM (inactive)	18 µM (inactive)	25 µM (inactive)	4.62 µM (inactive)	32.8 µM (inactive)	64.9 µM (inactive)	31.2 µM (inactive)	32 µM (inactive)
O=[N+]([O-])C(=C1NCCN1)C(Cl)=C(Cl)Cl	> 100 µM (inactive)	> 100 µM (inactive)	> 100 µM (inactive)	62.2 µM (inactive)	> 100 µM (inactive)	> 100 µM (inactive)	> 100 µM (inactive)	> 100 µM (inactive)	> 100 µM (inactive)	49.5 µM (inactive)	> 100 µM (inactive)	> 100 µM (inactive)	> 100 µM (inactive)	> 100 µM (inactive)	> 100 µM (inactive)	> 100 µM (inactive)	–	> 100 µM (inactive)	> 100 µM (inactive)	> 100 µM (inactive)
COC(CC1(CCNc2ccccc2)C(=O)N(COCC[Si](C)(C)C)c2ccccc21)OC (centres undefined)	15.5 µM (inactive)	23.6 µM (inactive)	17.8 µM (inactive)	4.35 µM (inactive)	18 µM (inactive)	8.85 µM (inactive)	12.5 µM (inactive)	10.4 µM (inactive)	19.3 µM (inactive)	> 43.7 µM (inactive)	7.23 µM (inactive)	11.6 µM (inactive)	–	15.3 µM (inactive)	23.2 µM (inactive)	> 32.8 µM (inactive)	18.9 µM (inactive)	20.3 µM (inactive)	14.5 µM (inactive)	13.9 µM (inactive)
N#Cc1ccc(/N=N/N2CCCC2)cc1	–	20.8 µM (inactive)	63.8 µM (inactive)	91.2 µM (inactive)	> 100 µM (inactive)	> 100 µM (inactive)	> 100 µM (inactive)	> 100 µM (inactive)	> 100 µM (inactive)	61.2 µM (inactive)	40.2 µM (inactive)	> 100 µM (inactive)	> 100 µM (inactive)	> 100 µM (inactive)	> 100 µM (inactive)	15.2 µM (inactive)	> 100 µM (inactive)	> 100 µM (inactive)	> 100 µM (inactive)	69.8 µM (inactive)
COc1cc2c(c(O)c1OC)C(=O)C(Cc1ccc(O)cc1)CO2 (centres undefined)	23.8 µM (inactive)	39.8 µM (inactive)	–	29.2 µM (inactive)	14.4 µM (inactive)	23.4 µM (inactive)	34.1 µM (inactive)	2.33 µM (inactive)	22.9 µM (inactive)	35.2 µM (inactive)	16.6 µM (inactive)	32.4 µM (inactive)	16.1 µM (inactive)	30.8 µM (inactive)	36.3 µM (inactive)	4.67 µM (inactive)	30.1 µM (inactive)	29 µM (inactive)	32.4 µM (inactive)	40.6 µM (inactive)
